Measured values from patent publication US10004701B2, “Methods and compositions for treating infection” (UNIVERSITY OF ROCHESTER, priority 2012, dated 2018).
Structures can show the parent of a compound that is named as a salt. Where two headings read alike, the source gives them in different places.

What was measured:
Assay in all cases: AK assay 384-well format, Prestwick library screening
E. cloacae = type: cell-based, Enterobacter cloacae; settings: Enterobacter cloacae, 3 h, 50 μM final drug concentration
P. aeruginosa = type: cell-based, Pseudomonas aeruginosa; settings: Pseudomonas aeruginosa, 3 h, 50 μM final drug concentration
E. faecium = type: cell-based, Enterococcus faecium; settings: Enterococcus faecium, 3 h, 50 μM final drug concentration
[1] = tested on: S. aureus strain USA300-0114; type: cell-based, Staphylococcus aureus; settings: Staphylococcus aureus, USA300, 3 h, 50 μM final drug concentration
K. pneumoniae = type: cell-based, Klebsiella pneumoniae; settings: Klebsiella pneumoniae, 3 h, 50 μM final drug concentration
E. coli = type: cell-based, Escherichia coli; settings: Escherichia coli, 3 h, 50 μM final drug concentration
[2] = tested on: A. baumannii strain 98-37-09; type: cell-based, Acinetobacter baumannii; settings: Acinetobacter baumannii, 983709, 3 h, 50 μM final drug concentration
[3] = planktonic, cutoff for positive 3-fold increase, read-out: AK-based Prestwick Library Screening Results, E. cloacae (fold increase in extracellular AK activity)
[4] = planktonic, cutoff for positive 3-fold increase, read-out: AK-based Prestwick Library Screening Results, P. aeruginosa (fold increase in extracellular AK activity)
[5] = planktonic, cutoff for positive 3-fold increase, read-out: AK-based Prestwick Library Screening Results, E. faecium (fold increase in extracellular AK activity)
[6] = planktonic, cutoff for positive 3-fold increase, read-out: AK-based Prestwick Library Screening Results, S. aureus (fold increase in extracellular AK activity)
[7] = planktonic, cutoff for positive 3-fold increase, read-out: AK-based Prestwick Library Screening Results, K. pneumoniae (fold increase in extracellular AK activity)
[8] = planktonic, cutoff for positive 3-fold increase, read-out: AK-based Prestwick Library Screening Results, E. coli (fold increase in extracellular AK activity)
[9] = planktonic, cutoff for positive 3-fold increase, read-out: AK-based Prestwick Library Screening Results, A. baumannii (fold increase in extracellular AK activity)
[10] = planktonic E. cloacae, 384-well, cutoff for positive-scoring molecules 3-fold increase, read-out: AK-based Prestwick Library Screening Results: E. cloacae (increase in extracellular AK activity)
[11] = planktonic P. aeruginosa, 384-well, cutoff for positive-scoring molecules 3-fold increase, read-out: AK-based Prestwick Library Screening Results: P. aeruginosa (increase in extracellular AK activity)
[12] = planktonic E. faecium, 384-well, cutoff for positive-scoring molecules 3-fold increase, read-out: AK-based Prestwick Library Screening Results: E. faecium (increase in extracellular AK activity)
[13] = planktonic S. aureus, 384-well, cutoff for positive-scoring molecules 3-fold increase, read-out: AK-based Prestwick Library Screening Results: S. aureus (increase in extracellular AK activity)
[14] = planktonic K. pneumoniae, 384-well, cutoff for positive-scoring molecules 3-fold increase, read-out: AK-based Prestwick Library Screening Results: K. pneumoniae (increase in extracellular AK activity)
[15] = planktonic E. coli, 384-well, cutoff for positive-scoring molecules 3-fold increase, read-out: AK-based Prestwick Library Screening Results: E. coli (increase in extracellular AK activity)
[16] = planktonic A. baumannii, 384-well, cutoff for positive-scoring molecules 3-fold increase, read-out: AK-based Prestwick Library Screening Results: A. baumannii (increase in extracellular AK activity)
[17] = 384-well format, cutoff for positive-scoring molecules 3-fold increase, read-out: AK-based Prestwick Library Screening Results, E. cloacae (increase in extracellular AK activity)
[18] = 384-well format, cutoff for positive-scoring molecules 3-fold increase, read-out: AK-based Prestwick Library Screening Results, P. aeruginosa (increase in extracellular AK activity)
[19] = 384-well format, cutoff for positive-scoring molecules 3-fold increase, read-out: AK-based Prestwick Library Screening Results, E. faecium (increase in extracellular AK activity)
[20] = 384-well format, cutoff for positive-scoring molecules 3-fold increase, read-out: AK-based Prestwick Library Screening Results, S. aureus (increase in extracellular AK activity)
[21] = 384-well format, cutoff for positive-scoring molecules 3-fold increase, read-out: AK-based Prestwick Library Screening Results, K. pneumoniae (increase in extracellular AK activity)
[22] = 384-well format, cutoff for positive-scoring molecules 3-fold increase, read-out: AK-based Prestwick Library Screening Results, E. coli (increase in extracellular AK activity)
[23] = 384-well format, cutoff for positive-scoring molecules 3-fold increase, read-out: AK-based Prestwick Library Screening Results, A. baumannii (increase in extracellular AK activity)

COC(=O)C1=C(C)NC(C)=C(C(=O)OCCN(C)Cc2ccccc2)C1c1cccc([N+](=O)[O-])c1 (centres unmarked) [Nicardipine hydrochloride]
fold induction at 50 µM (E. cloacae; [3]): 1.4
fold induction at 50 µM (P. aeruginosa; [4]): 1.1
fold induction at 50 µM (E. faecium; [5]): 1.1
fold induction at 50 µM [1, 6]: 0.6
fold induction at 50 µM (K. pneumoniae; [7]): 1
fold induction at 50 µM (E. coli; [8]): 1.2
fold induction at 50 µM [2, 9]: 1.3

O=C(CCCN1CCN(c2ccccn2)CC1)c1ccc(F)cc1 [Azaperone]
fold induction at 50 µM (E. cloacae; planktonic E. cloacae, positive cutoff 3-fold increase, read-out: AK-based Prestwick library screening result, E. cloacae (fold increase in extracellular AK activity)): 1.9
fold induction at 50 µM (P. aeruginosa; planktonic P. aeruginosa, positive cutoff 3-fold increase, read-out: AK-based Prestwick library screening result, P. aeruginosa (fold increase in extracellular AK activity)): 1
fold induction at 50 µM (E. faecium; planktonic E. faecium, positive cutoff 3-fold increase, read-out: AK-based Prestwick library screening result, E. faecium (fold increase in extracellular AK activity)): 1
fold induction at 50 µM ([1]; planktonic S. aureus, positive cutoff 3-fold increase, read-out: AK-based Prestwick library screening result, S. aureus (fold increase in extracellular AK activity)): 1.2
fold induction at 50 µM (K. pneumoniae; planktonic K. pneumoniae, positive cutoff 3-fold increase, read-out: AK-based Prestwick library screening result, K. pneumoniae (fold increase in extracellular AK activity)): 1
fold induction at 50 µM (E. coli; planktonic E. coli, positive cutoff 3-fold increase, read-out: AK-based Prestwick library screening result, E. coli (fold increase in extracellular AK activity)): 1.1
fold induction at 50 µM ([2]; planktonic A. baumannii, positive cutoff 3-fold increase, read-out: AK-based Prestwick library screening result, A. baumannii (fold increase in extracellular AK activity)): 1.2

OCCN1CCN(CCCN2c3ccccc3Sc3ccc(C(F)(F)F)cc32)CC1 [Fluphenazine dihydrochloride]
fold induction at 50 µM (E. cloacae; [10]): 1.6
fold induction at 50 µM (P. aeruginosa; [11]): 1.1
fold induction at 50 µM (E. faecium; [12]): 1.1
fold induction at 50 µM [1, 13]: 1
fold induction at 50 µM (K. pneumoniae; [14]): 1.5
fold induction at 50 µM (E. coli; [15]): 1.3
fold induction at 50 µM [2, 16]: 1.6

CO/N=C(\C(=O)N[C@@H]1C(=O)N2C(C(=O)O)=C(COC(C)=O)CS[C@H]12)c1csc(N)n1 [Cefotaxime sodium salt]
fold induction at 50 µM (E. cloacae; [10]): 22
fold induction at 50 µM (P. aeruginosa; [11]): 10
fold induction at 50 µM (E. faecium; [12]): 1
fold induction at 50 µM [1, 13]: 2.9
fold induction at 50 µM (K. pneumoniae; [14]): 5.5
fold induction at 50 µM (E. coli; [15]): 21.9
fold induction at 50 µM [2, 16]: 2.2

CC(=O)c1ccc(S(=O)(=O)NC(=O)NC2CCCCC2)cc1 [Acetohexamide]
fold induction at 50 µM (E. cloacae; [10]): 1.7
fold induction at 50 µM (P. aeruginosa; [11]): 1.2
fold induction at 50 µM (E. faecium; [12]): 0.9
fold induction at 50 µM [1, 13]: 1.1
fold induction at 50 µM (K. pneumoniae; [14]): 0.8
fold induction at 50 µM (E. coli; [15]): 1.2
fold induction at 50 µM [2, 16]: 1.1

N=C(N)N1CCc2ccccc2C1 [Debrisoquin sulfate]
fold induction at 50 µM (E. cloacae; [3]): 1.7
fold induction at 50 µM (P. aeruginosa; [4]): 1
fold induction at 50 µM (E. faecium; [5]): 1
fold induction at 50 µM [1, 6]: 0.9
fold induction at 50 µM (K. pneumoniae; [7]): 0.8
fold induction at 50 µM (E. coli; [8]): 1.2
fold induction at 50 µM [2, 9]: 0.9

Cc1c(-c2ccccc2)oc2c(C(=O)OCCN3CCCCC3)cccc2c1=O [Flavoxate hydrochloride]
fold induction at 50 µM (E. cloacae; [17]): 0.6
fold induction at 50 µM (P. aeruginosa; [18]): 0.6
fold induction at 50 µM (E. faecium; [19]): 0.9
fold induction at 50 µM [1, 20]: 0.6
fold induction at 50 µM (K. pneumoniae; [21]): 0.6
fold induction at 50 µM (E. coli; [22]): 0.5
fold induction at 50 µM [2, 23]: 0.5

CCOC(=O)C1=C(C)NC(C)=C(C(=O)OC)C1c1cccc([N+](=O)[O-])c1 (centres unmarked) [Nitrendipine]
fold induction at 50 µM (E. cloacae; planktonic, cutoff for positive-scoring molecules 3-fold increase, read-out: AK-based Prestwick Library Screening Results, E. cloacae (fold increase in extracellular AK activity)): 1.4
fold induction at 50 µM (P. aeruginosa; planktonic, cutoff for positive-scoring molecules 3-fold increase, read-out: AK-based Prestwick Library Screening Results, P. aeruginosa (fold increase in extracellular AK activity)): 0.9
fold induction at 50 µM (E. faecium; planktonic, cutoff for positive-scoring molecules 3-fold increase, read-out: AK-based Prestwick Library Screening Results, E. faecium (fold increase in extracellular AK activity)): 0.9
fold induction at 50 µM ([1]; planktonic, cutoff for positive-scoring molecules 3-fold increase, read-out: AK-based Prestwick Library Screening Results, S. aureus (fold increase in extracellular AK activity)): 0.4
fold induction at 50 µM (K. pneumoniae; planktonic, cutoff for positive-scoring molecules 3-fold increase, read-out: AK-based Prestwick Library Screening Results, K. pneumoniae (fold increase in extracellular AK activity)): 0.8
fold induction at 50 µM (E. coli; planktonic, cutoff for positive-scoring molecules 3-fold increase, read-out: AK-based Prestwick Library Screening Results, E. coli (fold increase in extracellular AK activity)): 0.8
fold induction at 50 µM ([2]; planktonic, cutoff for positive-scoring molecules 3-fold increase, read-out: AK-based Prestwick Library Screening Results, A. baumannii (fold increase in extracellular AK activity)): 0.9

COc1ccc2cc([C@H](C)C(=O)O)ccc2c1 [Naproxen]
fold induction at 50 µM (E. cloacae; [17]): 1.4
fold induction at 50 µM (P. aeruginosa; [18]): 1
fold induction at 50 µM (E. faecium; [19]): 1
fold induction at 50 µM [1, 20]: 0.8
fold induction at 50 µM (K. pneumoniae; [21]): 0.9
fold induction at 50 µM (E. coli; [22]): 1.2
fold induction at 50 µM [2, 23]: 1.1

CSc1ccc2c(c1)N(CCC1CCCCN1C)c1ccccc1S2 (centres unmarked) [Thioridazine hydrochloride]
fold induction at 50 µM (E. cloacae; [10]): 1.5
fold induction at 50 µM (P. aeruginosa; [11]): 1.1
fold induction at 50 µM (E. faecium; [12]): 1
fold induction at 50 µM [1, 13]: 1.3
fold induction at 50 µM (K. pneumoniae; [14]): 1.3
fold induction at 50 µM (E. coli; [15]): 1.6
fold induction at 50 µM [2, 16]: 2.9

CC(O)(P(=O)(O)O)P(=O)(O)O [Etidronic acid, disodium salt]
fold induction at 50 µM (E. cloacae; cutoff for positive-scoring molecules 3-fold increase, read-out: AK-based Prestwick Library Screening Results, E. cloacae (fold increase in extracellular AK activity)): 1.4
fold induction at 50 µM (P. aeruginosa; cutoff for positive-scoring molecules 3-fold increase, read-out: AK-based Prestwick Library Screening Results, P. aeruginosa (fold increase in extracellular AK activity)): 1.1
fold induction at 50 µM (E. faecium; cutoff for positive-scoring molecules 3-fold increase, read-out: AK-based Prestwick Library Screening Results, E. faecium (fold increase in extracellular AK activity)): 1
fold induction at 50 µM ([1]; cutoff for positive-scoring molecules 3-fold increase, read-out: AK-based Prestwick Library Screening Results, S. aureus (fold increase in extracellular AK activity)): 1.2
fold induction at 50 µM (K. pneumoniae; cutoff for positive-scoring molecules 3-fold increase, read-out: AK-based Prestwick Library Screening Results, K. pneumoniae (fold increase in extracellular AK activity)): 1
fold induction at 50 µM (E. coli; cutoff for positive-scoring molecules 3-fold increase, read-out: AK-based Prestwick Library Screening Results, E. coli (fold increase in extracellular AK activity)): 1.3
fold induction at 50 µM ([2]; cutoff for positive-scoring molecules 3-fold increase, read-out: AK-based Prestwick Library Screening Results, A. baumannii (fold increase in extracellular AK activity)): 1.2
